“Also recorded” adds a separate entry of the source. One block for each compound: values may come before it.
Columns and labels:
[1] = molecular target: T1, AT1 (Homo sapiens, UniProt P30556); design: method as in earlier work; conditions: fine-tuning set; BindingDB; read-out: potency on target (IC50 for AT1); cited from earlier work
T1 construct: expressed in transfected cells
T1 sequence (P30556 1-359): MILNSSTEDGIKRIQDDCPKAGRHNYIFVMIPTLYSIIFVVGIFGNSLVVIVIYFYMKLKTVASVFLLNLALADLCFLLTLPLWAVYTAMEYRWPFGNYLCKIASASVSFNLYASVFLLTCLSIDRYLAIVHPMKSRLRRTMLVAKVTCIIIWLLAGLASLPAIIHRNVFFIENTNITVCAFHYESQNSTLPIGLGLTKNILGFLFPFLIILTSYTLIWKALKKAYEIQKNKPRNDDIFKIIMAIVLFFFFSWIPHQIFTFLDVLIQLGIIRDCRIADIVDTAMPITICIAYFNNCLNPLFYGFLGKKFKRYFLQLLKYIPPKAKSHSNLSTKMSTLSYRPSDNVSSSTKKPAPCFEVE

[2] = tested on: PPARδ; design: method as in earlier work; conditions: fine-tuning set; BindingDB; read-out: potency on target (EC50 for PPARδ); cited from earlier work
[3] = tested on: THRβ; design: method as in earlier work; conditions: fine-tuning set; BindingDB; read-out: potency on target (EC50 for THRβ); cited from earlier work
[4] = molecular target: T2, sEH (Homo sapiens, UniProt P34913); assay: sEH enzyme activity assay with fluorogenic substrate PHOME; assay type: biochemical; conditions: mean, n ≥ 3
T2 construct: His tag (inferred from HisTrap purification with imidazole elution); made in house; own inference
T2 sequence (P34913 1-555): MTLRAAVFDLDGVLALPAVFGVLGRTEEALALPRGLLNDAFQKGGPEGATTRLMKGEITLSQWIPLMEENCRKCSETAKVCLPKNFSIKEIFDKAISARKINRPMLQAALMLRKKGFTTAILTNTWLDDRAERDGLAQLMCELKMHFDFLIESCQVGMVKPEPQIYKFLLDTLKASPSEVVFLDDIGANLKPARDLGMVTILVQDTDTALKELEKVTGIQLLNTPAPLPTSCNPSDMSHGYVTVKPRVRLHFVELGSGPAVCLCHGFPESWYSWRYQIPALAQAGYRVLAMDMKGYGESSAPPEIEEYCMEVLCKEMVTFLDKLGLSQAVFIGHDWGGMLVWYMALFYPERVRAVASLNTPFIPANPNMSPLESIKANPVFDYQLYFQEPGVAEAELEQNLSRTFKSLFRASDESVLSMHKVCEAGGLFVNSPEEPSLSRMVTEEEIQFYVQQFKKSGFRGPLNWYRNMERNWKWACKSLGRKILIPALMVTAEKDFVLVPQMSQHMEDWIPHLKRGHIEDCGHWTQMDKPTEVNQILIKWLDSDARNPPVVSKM
Text: (§1) Compound 7 was originally designed with tert-butyloxy motif which was replaced by tert-butyl for improved chemical stability. The dual ligand candidates were characterized in functional assays for the targets of interest using cellular Gal4-hybrid reporter gene assays[43] to determine FXR, THRβ and PPARδ modulation and an enzyme activity assay[44] with the fluorogenic substrate PHOME to test sEH inhibition (Table 1). In vitro characterization of the CLM designed dual FXR/sEH modulators 1–3 confirmed engagement of both targets by all three compounds with sub-micromolar to low micromolar potencies. […] All designed PPARδ/sEH modulators (7–9) were confirmed as dual ligands of the intended targets. 7 emerged as remarkably potent sEH inhibitor endowed with micromolar PPARδ agonist activity.
Soluble epoxide hydrolase (sEH) was purified as described by Hahn et al.[68] and Lukin et al.[69], respectively. Protein expression was carried out in 500 ml ZYP5052 autoinduction medium containing Kanamycin (100 mg/L) with lactose uptake-dependent induction. The fermentation procedure started at 37 °C and 200 rpm until the OD600 reached approximately 1.0. Then the temperature was reduced to 16 °C. After 24–36 h the cells (OD600 ≈ 15.0) were harvested by centrifugation at 5000 × g (4 °C, 20 min). Pellets were resuspended in a resuspension buffer containing Tris (50 mM), NaCl (0.5 M) and MgCl2 (10 mM) at pH 8 and sonicated twice for 15 s on ice. The sonicated suspension was centrifuged (18,000 × g, 30 min, 4 °C) and the supernatant was ultracentrifuged (100,000 × g, 1 h 10 min, 4 °C). The ultracentrifugation supernatant was loaded on a 5 ml HisTrap® FF (GE Healthcare, München, Germany) column at a flow rate of 2 ml/min and washed with washing buffer containing Tris (50 mM), NaCl (0.5 M), MgCl2 (10 mM), imidazole (20 mM) and DTT (3 mM) at pH 8, and eluted at 120 mM imidazole. The fractions containing hsEH after SDS-PAGE fraction analysis were pooled. The identity of hsEH was confirmed by Western Blotting and hsEH hydrolase activity assay. The inhibitory potency of the compounds was determined using a fluorescence-based enzyme activity assay in which PHOME (3-phenyl-cyano(6-methoxy-2-naphthalenyl)methylester-2-oxiraneacetic acid) is metabolized by sEH hydrolase towards a fluorescent naphthalene aldehyde. Dilution series of the compounds were incubated for 30 min with recombinant sEH (final protein concentration 3 nM). Subsequently, the fluorogenic substrate PHOME at final concentration of 50 μM was added, and the fluorescence was measured every minute for 45 min using a Tecan plate reader (ex: 360 nm, em: 465 nm; bandwidth 35 nm). Inhibition in percent was plotted against the logarithmic test compound concentration and IC50-values were calculated using the “log(Inhibitor) vs. Response – Variable slope (four parameters)” equation in GraphPad Prism 7.

[5] = molecular target: T3, PPARδ (Homo sapiens, UniProt Q03181); assay: Gal4-hybrid reporter gene assay PPARδ; assay type: cell-based; conditions: mean, n ≥ 3
T3 construct: expressed in transfected cells; host or cells: HEK293T
T3 sequence (Q03181 211-439 limits assumed): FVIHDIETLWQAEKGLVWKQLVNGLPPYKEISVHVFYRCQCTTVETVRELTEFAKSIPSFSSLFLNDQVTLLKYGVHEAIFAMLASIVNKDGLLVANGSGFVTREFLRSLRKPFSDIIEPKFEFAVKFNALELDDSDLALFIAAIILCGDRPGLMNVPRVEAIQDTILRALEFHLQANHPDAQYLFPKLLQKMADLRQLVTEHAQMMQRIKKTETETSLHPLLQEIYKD
Text: as §1
HEK293T cells (ATCC, CRL-1573) were cultured in Dulbecco’s modified eagle medium (DMEM), high glucose, supplemented with 10% FCS, sodium pyruvate (1 mM), penicillin (100 U/mL), and streptomycin (100 µg/mL) to 70–80% confluence at 37 °C and 5% CO2 and seeded in clear 96-well plates with a density of 40,000 cells/well. After 24 h, the medium was changed to Opti-MEM without supplements. Transient transfection was performed using Lipofectamine LTX reagent (Invitrogen, Carlsbad, CA, USA) according to the manufacturer’s protocol with pFR-Luc (100 ng/well) as reporter plasmid, pRL-SV40 (2 ng/well) for normalization of transfection efficiency and cell growth, and one pFA-CMV-hNR-LBD clone coding for the hinge region and ligand binding domain (LBD) of the NR of interest. […] After overnight (14–16 h) incubation, luminescence was measured using the Dual-Glo® Luciferase Assay System (Promega, Madison, WI, USA) according to the manufacturer’s protocol with a Tecan Spark® 10 M multimode microplate reader. Relative light units (RLU) for normalization of transfection efficiency and cell growth were calculated by dividing firefly luminescence by renilla luminescence and multiplication by 1000. […]

[6] = molecular target: T1, AT1; assay: IP-One assay for AT1 in stably transfected CHO-K1 cells; assay type: cell-based; conditions: cellular IP-One assay; mean, n ≥ 3
Method: (§2) CHO-K1 cells (DSMZ, ACC110) were cultured at 5% CO2 and 37 °C in full growth medium (Ham’s F-12 medium supplemented with 10% fetal calf serum (FCS), penicillin (100 U/mL) and streptomycin (100 µg/mL)). For harvesting cells were incubated with Trypsin/EDTA. IP-One assay for AT1 and FFAR1. To investigate the ligand dependent activation of the two GPCRs, inositol mono-phosphate (IP-One) accumulation was monitored using an HTRF based displacement assay between FRET acceptor coupled IP-One and Terbium cryptate coupled anti-IP-One antibody (IP-One assay kit, Cisbio Bioassays, Codolet, France). AT1: the IP-One assay for AT1 was performed according to the protocol published by Hernandez-Olmos et al.[66] In brief, by using the sleeping beauty method a CHO-K1 cell line was generated which stably overexpresses AT1 isoform 1 and GNA11 (G-protein subunit α 11) as well as cells only overexpressing the GNA11 without any GPCR, as control. Cells were seeded into white tissue culture 384-well plates (Greiner Bio-One, Frickenhausen, Germany) at 15,000 cells/well and incubated overnight at 37 °C and 5% CO2. […] Antagonist activity of compounds was measured with parallel stimulation with 10 nM [Val5]-Angiotensin II. […] A full dose-response curve with FFAR1 reference agonist GW9508 was measured as control for assay performance. […]

[7] = molecular target: T4, FFAR1 (Homo sapiens, UniProt O14842); assay: IP-One assay for FFAR1 in stably transfected CHO-K1 cells; assay type: cell-based; conditions: cellular IP-One assay; mean, n ≥ 3
T4 construct: expressed in transfected cells
Method: as §2

T4 sequence (O14842 whole entry): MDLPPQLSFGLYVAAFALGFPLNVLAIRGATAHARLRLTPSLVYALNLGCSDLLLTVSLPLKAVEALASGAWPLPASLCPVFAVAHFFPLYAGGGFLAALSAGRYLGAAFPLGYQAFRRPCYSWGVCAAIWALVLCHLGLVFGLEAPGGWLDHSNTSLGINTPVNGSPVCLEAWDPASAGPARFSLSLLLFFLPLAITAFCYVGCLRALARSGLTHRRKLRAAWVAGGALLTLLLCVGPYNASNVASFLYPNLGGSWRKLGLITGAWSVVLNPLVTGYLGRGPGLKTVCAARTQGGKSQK

Structure (SMILES): CCCCc1cnc(C(=O)O)n1Cc1ccc(-c2ccccc2C)cc1
IC50 [1]: 3 nM

Structure (SMILES): CCCCc1ncc(/C=C(\Cc2cccs2)C(=O)O)n1Cc1ccc(C(=O)O)cc1
IC50 [1]: 2 nM

Structure (SMILES): CCO[C@H](COc1ccc(C(F)(F)F)cc1)CSc1ccc(OCC(=O)O)c(C)c1
EC50 [2]: 2 nM

Structure (SMILES): CC(C)c1cc(Oc2c(Cl)cc(NC(=O)C(=O)O)cc2Cl)n[nH]c1=O
EC50 [3]: 120 nM

Structure (SMILES): COc1ccc2c(c1OCc1ccccc1)CC(C(=O)O)N(C(=O)C(c1ccccc1)c1ccccc1)C2 (stereo not shown)
IC50 [1]: 1000 nM

Structure (SMILES): CC(C)c1onc(-c2c(Cl)cccc2Cl)c1COc1ccc(CNc2ccc(CC(=O)O)cc2)c(Cl)c1
EC50 [2]: 2000 nM

IC50 [4]: 17 nM
EC50 [5]: 10000 nM
Structure (SMILES): CC(C)(C)c1ccc(NC(=O)N[C@H]2CC[C@H](Oc3ccc(CCC(=O)O)cc3)CC2)cc1 [Compound 7]

IC50 [4]: 200 nM
PPARδ: fold act. at 80 µM [5]: 6.7 fold
Structure (SMILES): O=C(O)CCc1ccc(OC2CCCN(C(=O)NCc3c(Cl)cc(Cl)cc3Cl)CC2)cc1 (stereo not shown) [Compound 8]

IC50 [4]: 270 nM
PPARδ: fold act. at 80 µM [5]: 3.0 fold
Structure (SMILES): O=C(O)CCc1ccc(OC2CCN(C(=O)NCc3c(Cl)cc(Cl)cc3Cl)CC2)cc1 [Compound 9]

AT1: activity [6]: inactive
IC50 [4]: 20 nM
Structure (SMILES): O=C(O)c1ccc(OC2CCCN(C(=O)NCc3ccc(Cl)cc3Cl)CC2)cc1 (stereo not shown) [Compound 10]

IC50 [4]: 61 nM
FFAR1: activity [7]: inactive
Structure (SMILES): CCC(c1ccc(C(=O)O)cc1)c1cccc(NC(=O)Nc2ccc(OC(F)(F)F)cc2)c1 (stereo not shown) [Compound 11]

AT1: activity [6]: no effect; also recorded: inactive
EC50 [7]: 8500 nM
Structure (SMILES): CC#CC(CC(=O)O)c1ccc(OCc2cccc(-c3ccccc3C(=O)O)c2)cc1 (stereo not shown) [Compound 12]

Source: publication PMC11390726, “Automated design of multi-target ligands by generative deep learning” (Nature Communications, 2024)
